In patent US20230138395A1, “PHARMACEUTICAL COMPOSITIONS OF A THERAPEUTIC POLYENE MACROLIDE AND METHODS OF THEIR USE” (priority 2020, published 2023):
≈ marks a conversion by molar mass, not a printed value. Where “and” joins values, the source holds several entries; their conditions need not be identical. Identical values can stand only once. Marks after values point to notes of the source that are not given here.

Columns and labels:
[1] = test system: Penicillium strains; test: MIC testing (CLSI M38-A2); type: cell-based, Penicillium spp.
[2] = test system: individual Aspergillus spp. (Table 15, species not named); test: MFC determination, Table 15; type: cell-based; conditions: Aspergillus sp. of Table 15
[3] = test system: Fusarium strains (Table 18); test: MFC determination, Table 18; type: cell-based, Fusarium spp.
[4] = test system: Candida albicans; test: MFC determination; type: cell-based
[5] = test system: A. fumigatus AF91; test: In vitro activity (MIC) against the infecting strain, Example 17; type: cell-based, Aspergillus fumigatus; conditions: Aspergillus fumigatus, read-out: MIC
Procedure: Minimum Inhibitory Concentration: MIC testing was performed according to the Clinical and Laboratory Standards Institute (CLSI) M27-A3 and M38-A2 standards for the susceptibility testing of yeasts and filamentous fungi, respectively (Cryptococcus isolates were incubated for 72 h). For yeast strains, the incubation temperature and time were 35° C. and 24-48 h, respectively, and the inoculum size was 0.5-2.5×10^3 CFU/ml. For filamentous strains, the inoculum size was 0.4-5×10^4 CFU/ml, and the incubation time was strain and drug specific. RPMI 1640 was the test medium throughout, with the exception of the use of YNB for Cryptococcus. Inhibition endpoints for compound 1A were recorded at 50% and 100% after both 24 h and 48 h incubation; caspofungin results against Aspergillus strains were read as minimum effective concentrations (MEC), the lowest concentration that leads to small, rounded, compact growth as compared to the confluent growth of the control.

[6] = test system: Fusarium strains; test: MIC testing (CLSI M38-A2), Table 17; type: cell-based, Fusarium spp.; conditions: Fusarium strains (Table 17)
[7] = test system: Cr. neoformans strains; test: MIC testing (CLSI M27-A3, YNB, 72 h); type: cell-based, Cryptococcus neoformans
[8] = test system: individual Aspergillus spp. (Table 12, species not named); test: MIC testing (CLSI M38-A2), Table 12; type: cell-based; conditions: Aspergillus sp. of Table 12, caspofungin read as MEC
[9] = test system: Fusarium strains; test: MFC determination, Table 17; type: cell-based, Fusarium spp.; conditions: Fusarium strains (Table 17)
[10] = test system: all Aspergillus strains tested; test: MFC determination, summary; type: cell-based
[11] = test system: C. krusei strains; test: MFC determination; type: cell-based
[12] = test system: C. parapsilosis; test: MIC testing (CLSI M27-A3); type: cell-based; set-up: MIC: unit not given beside the values
[13] = test system: all Candida strains; test: MFC determination, summary; type: cell-based
[14] = test system: C. albicans SC5314; test: In vitro activity (MIC) against the infecting strain, Example 18; type: cell-based, Candida albicans; conditions: Candida albicans, read-out: MIC
[15] = test system: individual Aspergillus spp. (Table 15, species not named); test: MIC testing (CLSI M38-A2), Table 15; type: cell-based; conditions: Aspergillus sp. of Table 15, caspofungin read as MEC
[16] = test system: C. tropicalis; test: MFC determination; type: cell-based
[17] = test system: all Candida strains; test: MIC testing (CLSI M27-A3), summary; type: cell-based
[18] = test system: Cr. neoformans strains; test: MFC determination; type: cell-based, Cryptococcus neoformans; conditions: Cr. neoformans
[19] = test system: Candida albicans SC5314; test: Disseminated candidiasis in immunocompromised murine model (BALB/c mice): tissue fungal burden; type: in vivo; conditions: 7 days
[20] = test system: C. parapsilosis; test: MFC determination; type: cell-based
[21] = test system: individual Aspergillus spp. (Table 14, species not named); test: MIC testing (CLSI M38-A2), Table 14; type: cell-based; conditions: Aspergillus sp. of Table 14, caspofungin read as MEC
[22] = test system: individual Aspergillus spp. (Table 13, species not given); test: MFC determination, Table 13; type: cell-based; conditions: Aspergillus sp. of Table 13
[23] = test system: Candida albicans; test: MIC testing (CLSI M27-A3); type: cell-based; set-up: MIC: unit not given beside the values; conditions: for MIC Range: in µg/mL
[24] = test system: Penicillium strains; test: MFC determination; type: cell-based, Penicillium spp.
[25] = test system: individual Aspergillus spp. (Table 13, species not given); test: MIC testing (CLSI M38-A2), Table 13; type: cell-based; conditions: Aspergillus sp. of Table 13, caspofungin read as MEC
[26] = individual C. albicans strain with elevated MICs to non-polyene comparators (Table 22)
[27] = C. parapsilosis strains, in µg/mL
[28] = individual C. parapsilosis strain with elevated MICs to non-polyene comparators (Table 22)

C[C@@H]1[C@H](O)[C@@H](C)/C=C/C=C/C=C/C=C/C=C/C=C/C=C/[C@H](O[C@@H]2O[C@H](C)[C@@H](O)[C@H](N)[C@@H]2O)C[C@@H]2O[C@](O)(C[C@@H](O)[C@H](O)CC[C@@H](O)C[C@@H](O)C[C@@H](O)CC(=O)O[C@H]1C)C[C@H](O)[C@H]2C [Compound 1A] was tested, and the “MIC Range” value ([1]; Penicillium strains, in µg/mL) was 0.5-2, the MIC50 ([1]; Penicillium, inhibits 50% of strains) was 2 µg/mL (≈ 2.24 µM) and the MIC90 ([1]; Penicillium, inhibits 90% of strains) was 2 µg/mL (≈ 2.24 µM). It also gave an MFC50 ([2]; kills 50% of strains) greater than 4 µg/mL, an MFC90 ([2]; kills 90% of strains) greater than 4 µg/mL and an MFC50 ([3]; kills 50% of strains) of 2 µg/mL (≈ 2.24 µM). The MFC90 ([3]; kills 90% of strains) was greater than 4 µg/mL, the “MFC Range” value ([4]; Fluconazole-susceptible C. albicans n = 13, in µg/mL) was 0.125-1 and the MFC50 ([4]; Fluconazole-susceptible C. albicans n = 13, kills 50% of strains) was 0.5 µg/mL (≈ 0.559 µM). The MFC90 ([4]; Fluconazole-susceptible C. albicans n = 13, kills 90% of strains) was 1 µg/mL (≈ 1.12 µM), the MFC [4, 26] was 1 (5×) and >4 and 2 and the MIC [5] was 2 µg/mL (≈ 2.24 µM). For the same compound, the “MIC Range” value ([6]; in µg/mL) was 1-4, the MIC50 ([6]; inhibits 50% of strains) was 2 µg/mL (≈ 2.24 µM) and the MIC90 ([6]; inhibits 90% of strains) was 4 µg/mL (≈ 4.47 µM). For the same compound, the “MIC Range” value ([7]; Cr. neoformans strains, 72 h, in µg/mL) was 0.5-2, the MIC50 ([7]; Cr. neoformans, inhibits 50% of strains) was 1 µg/mL (≈ 1.12 µM) and the MIC90 ([7]; Cr. neoformans, inhibits 90% of strains) was 1 µg/mL (≈ 1.12 µM). The “MIC Range” value ([8]; in µg/mL) was 1-4, the MIC50 ([8]; inhibits 50% of strains) was 2 µg/mL (≈ 2.24 µM) and the MIC90 ([8]; inhibits 90% of strains) was 2 µg/mL (≈ 2.24 µM). The “MFC Range” value ([9]; in µg/mL) was 1-4, the MFC50 ([9]; kills 50% of strains) was 2 µg/mL (≈ 2.24 µM) and the MFC90 ([9]; kills 90% of strains) was greater than 4 µg/mL. For the same compound, the MFC50 ([10]; kills 50% of strains) was 4 µg/mL (≈ 4.47 µM), the MFC90 ([10]; kills 90% of strains) was greater than 4 µg/mL and the “MFC Range” value ([11]; C. krusei strains, in µg/mL) was 0.5-2. The MFC50 ([11]; C. krusei, kills 50% of strains) was 1 µg/mL (≈ 1.12 µM), the MFC90 ([11]; C. krusei, kills 90% of strains) was 2 µg/mL (≈ 2.24 µM) and the MFC ([11]; individual C. krusei strain with elevated MICs to non-polyene comparators (Table 22)) was 2 µg/mL (≈ 2.24 µM). For the same compound, the “MIC Range” value [12, 27] was 0.25-2, the MIC50 ([12]; C. parapsilosis, inhibits 50% of strains) was 0.25 µg/mL (≈ 0.28 µM) and the MIC90 ([12]; C. parapsilosis, inhibits 90% of strains) was 2 µg/mL (≈ 2.24 µM). For the same compound, the MIC [12, 28] was 0.5 (2×) and 1, the “MFC Range” value ([13]; in µg/mL) was 0.125-16 and the MFC50 ([13]; kills 50% of strains) was 1 µg/mL (≈ 1.12 µM). The MFC90 ([13]; kills 90% of strains) was 2 µg/mL (≈ 2.24 µM), the MIC [14] was 0.5 µg/mL (≈ 0.559 µM) and the “MIC Range” value ([15]; in µg/mL) was 0.5-4. The MIC50 ([15]; inhibits 50% of strains) was 2 µg/mL (≈ 2.24 µM), the MIC90 ([15]; inhibits 90% of strains) was 4 µg/mL (≈ 4.47 µM) and the “MFC Range” value ([16]; C. tropicalis strains, in µg/mL) was 0.5-16. For the same compound, the MFC50 ([16]; C. tropicalis, kills 50% of strains) was 1 µg/mL (≈ 1.12 µM), the MFC90 ([16]; C. tropicalis, kills 90% of strains) was 8 µg/mL (≈ 8.95 µM) and the “MIC Range” value ([17]; in µg/mL) was 0.125-8. For the same compound, the MIC50 ([17]; inhibits 50% of strains) was 1 µg/mL (≈ 1.12 µM), the MIC90 ([17]; inhibits 90% of strains) was 2 µg/mL (≈ 2.24 µM) and the MFC50 ([18]; kills 50% of strains) was 1 µg/mL (≈ 1.12 µM). The MFC90 ([18]; kills 90% of strains) was greater than 4 µg/mL, the “Brain tissue fungal burden, Mean log CFUs ± the standard deviation” value ([19]; Experiment I, 0.35 mg/kg i.v.) was 2.92 ± 1.21 log CFUs and the “Kidney tissue fungal burden, Mean log CFUs ± the standard deviation” value ([19]; Experiment I, 0.35 mg/kg i.v.) was 3.16 ± 1.41 log CFUs. For the same compound, the “Brain tissue fungal burden, Mean log CFUs ± the standard deviation” value ([19]; Experiment I, 0.7 mg/kg i.v.) was 3.59 ± 1.20 log CFUs, the “Kidney tissue fungal burden, Mean log CFUs ± the standard deviation” value ([19]; Experiment I, 0.7 mg/kg i.v.) was 2.66 ± 2.11 log CFUs and the “Brain tissue fungal burden, Mean log CFUs ± the standard deviation” value ([19]; Experiment II, 0.35 mg/kg i.v.) was 3.55 ± 1.26 log CFUs. The “Kidney tissue fungal burden, Mean log CFUs ± the standard deviation” value ([19]; Experiment II, 0.35 mg/kg i.v.) was 3.53 ± 0.63 log CFUs, the “Brain tissue fungal burden, Mean log CFUs ± the standard deviation” value ([19]; Experiment II, 0.7 mg/kg i.v.) was 2.97 ± 2.04 log CFUs and the “Kidney tissue fungal burden, Mean log CFUs ± the standard deviation” value ([19]; Experiment II, 0.7 mg/kg i.v.) was 2.99 ± 1.05^a,b log CFUs. For the same compound, the “MFC Range” value [20, 27] was 0.25-2, the MFC50 ([20]; C. parapsilosis, kills 50% of strains) was 0.5 µg/mL (≈ 0.559 µM) and the MFC90 ([20]; C. parapsilosis, kills 90% of strains) was 2 µg/mL (≈ 2.24 µM). The MFC [20, 28] was 0.5 (2×) and 1, the “MIC Range” value ([21]; in µg/mL) was 1-2 and the MIC50 ([21]; inhibits 50% of strains) was 2 µg/mL (≈ 2.24 µM). It also gave an MIC90 ([21]; inhibits 90% of strains) of 2 µg/mL (≈ 2.24 µM), an MFC50 ([22]; kills 50% of strains) of 2 µg/mL (≈ 2.24 µM) and an MFC90 ([22]; kills 90% of strains) greater than 4 µg/mL. For the same compound, the “MIC Range” value ([23]; Fluconazole-resistant C. albicans n = 7) was 1-2, the “MIC Range” value ([23]; Fluconazole-susceptible C. albicans n = 13) was 0.125-1 and the MIC50 ([23]; Fluconazole-susceptible C. albicans n = 13, inhibits 50% of strains) was 0.5 µg/mL (≈ 0.559 µM). For the same compound, the MIC90 ([23]; Fluconazole-susceptible C. albicans n = 13, inhibits 90% of strains) was 1 µg/mL (≈ 1.12 µM), the MIC [23, 26] was 1 (6×) and 2 and the MFC50 ([24]; kills 50% of strains) was 2 µg/mL (≈ 2.24 µM). The MFC90 ([24]; kills 90% of strains) was 4 µg/mL (≈ 4.47 µM), the “MIC Range” value ([25]; in µg/mL) was 1-2 and the MIC50 ([25]; inhibits 50% of strains) was 1 µg/mL (≈ 1.12 µM). For the same compound, the MIC90 ([25]; inhibits 90% of strains) was 2 µg/mL (≈ 2.24 µM).
